{"source": "paper PMC6073756", "about": "“Allicin Bioavailability and Bioequivalence from Garlic Supplements and Garlic Foods” (Nutrients, 2018)", "key": {"[1]": {"experiment": "Allicin bioavailability or bioequivalence bioassay: 32-h breath allyl methyl sulfide (AMS) concentration curve after consumption", "type": "in vivo, human", "conditions": "two tests, same person"}, "[2]": {"parameters": "method as in PMID 25681129", "conditions": "cited from earlier work"}, "[3]": {"parameters": "method as in doi:10.1055/s-2006-959976", "conditions": "added to whole blood; cited from earlier work"}, "[4]": {"conditions": "cited from earlier work"}}}
{"smiles": "C=CC[S+]([O-])C[C@H](N)C(=O)O", "note": "(mixture of isomers) [L(±)-alliin]", "values": [{"measurement": "Differences in Tmax, RF2, or RRF2 versus natural L(+)-alliin", "setting": "[1]", "result": "No significant differences"}]}
{"smiles": "C=CCSCC(N)C(=O)O", "note": "(stereo not shown) [S-allyl-cysteine, S-allylcysteine]", "values": [{"measurement": "Administered dose accounted for among the urinary metabolites", "setting": "[2]", "result": 13, "unit": "%"}, {"measurement": "Dose in urine as SAC plus N-acetyl-SAC", "setting": "[2]", "result": 1, "unit": "%"}, {"measurement": "Dose in urine as alliin plus N-acetyl-alliin", "setting": "[2]", "result": 12, "unit": "%"}, {"measurement": "Unknown metabolites", "setting": "[2]", "result": 87, "unit": "%"}]}
{"smiles": "C=CCS[S+]([O-])CC=C", "note": "(stereo not shown) [allicin, diallyl thiosulfinate]", "values": [{"measurement": "Half-life of metabolism to allyl mercaptan", "setting": "[3]", "result": "< 1", "unit": "min"}, {"measurement": "Share of the allicin consumed accounted for by breath AMS", "setting": "[4]", "result": "at least 90%"}]}
